According to PubChem BioAssay (NCI):
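Here, GI50 denotes the concentration required for 50% inhibition of growth. The concentration for full growth arrest is given as TGI.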

Assays:
Assay in all cases: DTP human tumour cell line panel, 384-well format
SNB-75 CNS = system: SNB-75 CNS
NCI-H322M lung = system: NCI-H322M lung
HT29 colon = system: HT29 colon
DU-145 prostate = system: DU-145 prostate
SK-MEL-2 melanoma = system: SK-MEL-2 melanoma
BT-549 breast = system: BT-549 breast
SW-620 colon = system: SW-620 colon
M14 melanoma = system: M14 melanoma
HCT-15 colon = system: HCT-15 colon
SR leukemia = system: SR leukemia
OVCAR-8 ovarian = system: OVCAR-8 ovarian
SNB-19 CNS = system: SNB-19 CNS
NCI-H522 lung = system: NCI-H522 lung
MOLT-4 leukemia = system: MOLT-4 leukemia
NCI-H226 lung = system: NCI-H226 lung
RXF 393 renal = system: RXF 393 renal
HOP-62 NSCLC = system: HOP-62 NSCLC
CAKI-1 renal = system: CAKI-1 renal
MCF7 breast = system: MCF7 breast
SF-268 CNS = system: SF-268 CNS
COLO 205 colon = system: COLO 205 colon
RPMI-8226 leukemia = system: RPMI-8226 leukemia
SK-MEL-28 melanoma = system: SK-MEL-28 melanoma
IGROV1 ovarian = system: IGROV1 ovarian
HL-60(TB) leukemia = system: HL-60(TB) leukemia
TK-10 renal = system: TK-10 renal
KM12 colon = system: KM12 colon
HS 578T breast = system: HS 578T breast
A549 NSCLC = system: A549 NSCLC
SF-295 CNS = system: SF-295 CNS
786-0 renal = system: 786-0 renal
SK-MEL-5 melanoma = system: SK-MEL-5 melanoma
MALME-3M melanoma = system: MALME-3M melanoma
MDA-MB-468 breast = system: MDA-MB-468 breast
UACC-257 melanoma = system: UACC-257 melanoma
SN12C renal = system: SN12C renal
HCC-2998 colon = system: HCC-2998 colon
OVCAR-3 ovarian = system: OVCAR-3 ovarian
SF-539 CNS = system: SF-539 CNS
OVCAR-5 ovarian = system: OVCAR-5 ovarian
HOP-92 NSCLC = system: HOP-92 NSCLC
A498 renal = system: A498 renal
MDA-MB-231 breast = system: MDA-MB-231 breast
NCI/ADR-RES ovarian = system: NCI/ADR-RES ovarian
SK-OV-3 ovarian = system: SK-OV-3 ovarian
UACC-62 melanoma = system: UACC-62 melanoma
CCRF-CEM leukemia = system: CCRF-CEM leukemia
NCI-H460 NSCLC = system: NCI-H460 NSCLC
OVCAR-4 ovarian = system: OVCAR-4 ovarian
NCI-H23 lung = system: NCI-H23 lung
EKVX NSCLC = system: EKVX NSCLC
MDA-MB-435 melanoma = system: MDA-MB-435 melanoma
ACHN renal = system: ACHN renal
T-47D breast = system: T-47D breast
PC-3 prostate = system: PC-3 prostate
U251 glioblastoma = system: U251 glioblastoma

Q: For `Nc1ccn([C@H]2C[C@@H](O)[C@@H](CO)S2)c(=O)n1`, which GI50 (SNB-75 CNS) is on record?
A: > 100 µM

Q: And the TGI (SNB-75 CNS)?
A: > 100 µM

Q: What about the GI50 (NCI-H322M lung) of the same compound?
A: > 100 µM

Q: And the TGI (NCI-H322M lung)?
A: > 100 µM

Q: And the GI50 (HT29 colon)?
A: > 100 µM

Q: What about the TGI (HT29 colon) of the same compound?
A: > 100 µM

Q: And the GI50 (DU-145 prostate)?
A: 20.2 µM

Q: What about the TGI (DU-145 prostate) of the same compound?
A: > 100 µM

Q: What about the GI50 (SK-MEL-2 melanoma) of the same compound?
A: > 100 µM

Q: And the TGI (SK-MEL-2 melanoma)?
A: > 100 µM

Q: And the GI50 (BT-549 breast)?
A: 0.896 µM

Q: What about the TGI (BT-549 breast) of the same compound?
A: 26.3 µM

Q: What about the GI50 (SW-620 colon) of the same compound?
A: > 100 µM

Q: What about the TGI (SW-620 colon) of the same compound?
A: > 100 µM

Q: What about the GI50 (M14 melanoma) of the same compound?
A: > 100 µM

Q: And the TGI (M14 melanoma)?
A: > 100 µM

Q: And the GI50 (HCT-15 colon)?
A: 1.71 µM

Q: And the TGI (HCT-15 colon)?
A: > 100 µM

Q: And the GI50 (SR leukemia)?
A: 2.5 µM

Q: What about the TGI (SR leukemia) of the same compound?
A: 15.8 µM

Q: What about the GI50 (OVCAR-8 ovarian) of the same compound?
A: 0.783 µM

Q: What about the TGI (OVCAR-8 ovarian) of the same compound?
A: 30.8 µM

Q: What about the GI50 (SNB-19 CNS) of the same compound?
A: 4.99 µM

Q: And the TGI (SNB-19 CNS)?
A: > 100 µM

Q: And the GI50 (NCI-H522 lung)?
A: 0.113 µM

Q: And the TGI (NCI-H522 lung)?
A: 1.15 µM

Q: What about the TGI (MOLT-4 leukemia) of the same compound?
A: 0.0271 µM

Q: And the GI50 (NCI-H226 lung)?
A: 96.9 µM

Q: And the TGI (NCI-H226 lung)?
A: > 100 µM

Q: What about the GI50 (RXF 393 renal) of the same compound?
A: 6.98 µM

Q: And the TGI (RXF 393 renal)?
A: > 100 µM

Q: And the GI50 (HOP-62 NSCLC)?
A: 21.8 µM

Q: What about the TGI (HOP-62 NSCLC) of the same compound?
A: > 100 µM

Q: And the GI50 (CAKI-1 renal)?
A: > 100 µM

Q: What about the TGI (CAKI-1 renal) of the same compound?
A: > 100 µM

Q: And the GI50 (MCF7 breast)?
A: > 100 µM

Q: What about the TGI (MCF7 breast) of the same compound?
A: > 100 µM

Q: And the GI50 (SF-268 CNS)?
A: 54.4 µM

Q: And the TGI (SF-268 CNS)?
A: > 100 µM

Q: And the GI50 (COLO 205 colon)?
A: > 100 µM

Q: What about the TGI (COLO 205 colon) of the same compound?
A: > 100 µM

Q: What about the GI50 (RPMI-8226 leukemia) of the same compound?
A: 0.368 µM

Q: And the TGI (RPMI-8226 leukemia)?
A: 1.59 µM

Q: And the GI50 (SK-MEL-28 melanoma)?
A: > 100 µM

Q: What about the TGI (SK-MEL-28 melanoma) of the same compound?
A: > 100 µM

Q: What about the GI50 (IGROV1 ovarian) of the same compound?
A: > 100 µM

Q: What about the TGI (IGROV1 ovarian) of the same compound?
A: > 100 µM

Q: And the GI50 (HL-60(TB) leukemia)?
A: 0.306 µM

Q: What about the TGI (HL-60(TB) leukemia) of the same compound?
A: 1.26 µM

Q: What about the GI50 (TK-10 renal) of the same compound?
A: > 100 µM

Q: What about the TGI (TK-10 renal) of the same compound?
A: > 100 µM

Q: What about the GI50 (KM12 colon) of the same compound?
A: 9.08 µM

Q: What about the TGI (KM12 colon) of the same compound?
A: > 100 µM

Q: What about the GI50 (HS 578T breast) of the same compound?
A: > 100 µM

Q: What about the TGI (HS 578T breast) of the same compound?
A: > 100 µM

Q: What about the GI50 (A549 NSCLC) of the same compound?
A: > 100 µM

Q: What about the TGI (A549 NSCLC) of the same compound?
A: > 100 µM

Q: What about the GI50 (SF-295 CNS) of the same compound?
A: > 100 µM

Q: And the TGI (SF-295 CNS)?
A: > 100 µM

Q: And the GI50 (786-0 renal)?
A: 54.1 µM

Q: And the TGI (786-0 renal)?
A: > 100 µM

Q: And the GI50 (SK-MEL-5 melanoma)?
A: 0.804 µM

Q: What about the TGI (SK-MEL-5 melanoma) of the same compound?
A: > 100 µM

Q: What about the GI50 (MALME-3M melanoma) of the same compound?
A: > 100 µM

Q: What about the TGI (MALME-3M melanoma) of the same compound?
A: > 100 µM

Q: What about the GI50 (MDA-MB-468 breast) of the same compound?
A: > 100 µM

Q: What about the TGI (MDA-MB-468 breast) of the same compound?
A: > 100 µM

Q: What about the GI50 (UACC-257 melanoma) of the same compound?
A: > 100 µM

Q: What about the TGI (UACC-257 melanoma) of the same compound?
A: > 100 µM

Q: And the GI50 (SN12C renal)?
A: 11.6 µM

Q: What about the TGI (SN12C renal) of the same compound?
A: > 100 µM

Q: What about the GI50 (HCC-2998 colon) of the same compound?
A: 4.98 µM

Q: What about the TGI (HCC-2998 colon) of the same compound?
A: > 100 µM

Q: What about the GI50 (OVCAR-3 ovarian) of the same compound?
A: 3.29 µM

Q: What about the TGI (OVCAR-3 ovarian) of the same compound?
A: > 100 µM

Q: And the GI50 (SF-539 CNS)?
A: > 100 µM

Q: What about the TGI (SF-539 CNS) of the same compound?
A: > 100 µM

Q: What about the GI50 (OVCAR-5 ovarian) of the same compound?
A: > 100 µM

Q: And the TGI (OVCAR-5 ovarian)?
A: > 100 µM

Q: And the GI50 (HOP-92 NSCLC)?
A: 2.35 µM

Q: And the TGI (HOP-92 NSCLC)?
A: > 100 µM

Q: What about the GI50 (A498 renal) of the same compound?
A: > 100 µM

Q: What about the TGI (A498 renal) of the same compound?
A: > 100 µM

Q: What about the GI50 (MDA-MB-231 breast) of the same compound?
A: 2.95 µM

Q: What about the TGI (MDA-MB-231 breast) of the same compound?
A: > 100 µM

Q: And the GI50 (NCI/ADR-RES ovarian)?
A: 1.38 µM

Q: And the TGI (NCI/ADR-RES ovarian)?
A: > 100 µM

Q: What about the GI50 (SK-OV-3 ovarian) of the same compound?
A: > 100 µM

Q: And the TGI (SK-OV-3 ovarian)?
A: > 100 µM

Q: What about the GI50 (UACC-62 melanoma) of the same compound?
A: > 100 µM

Q: What about the TGI (UACC-62 melanoma) of the same compound?
A: > 100 µM

Q: What about the GI50 (CCRF-CEM leukemia) of the same compound?
A: 0.0552 µM

Q: And the TGI (CCRF-CEM leukemia)?
A: 0.862 µM

Q: What about the GI50 (NCI-H460 NSCLC) of the same compound?
A: 0.204 µM

Q: And the TGI (NCI-H460 NSCLC)?
A: > 100 µM

Q: What about the GI50 (OVCAR-4 ovarian) of the same compound?
A: > 100 µM

Q: And the TGI (OVCAR-4 ovarian)?
A: > 100 µM

Q: And the GI50 (NCI-H23 lung)?
A: > 100 µM

Q: What about the TGI (NCI-H23 lung) of the same compound?
A: > 100 µM

Q: What about the GI50 (EKVX NSCLC) of the same compound?
A: > 100 µM

Q: And the TGI (EKVX NSCLC)?
A: > 100 µM

Q: What about the GI50 (MDA-MB-435 melanoma) of the same compound?
A: > 100 µM

Q: What about the TGI (MDA-MB-435 melanoma) of the same compound?
A: > 100 µM

Q: What about the GI50 (ACHN renal) of the same compound?
A: > 100 µM

Q: What about the TGI (ACHN renal) of the same compound?
A: > 100 µM

Q: And the GI50 (T-47D breast)?
A: > 100 µM

Q: What about the TGI (T-47D breast) of the same compound?
A: > 100 µM

Q: And the GI50 (PC-3 prostate)?
A: > 100 µM

Q: What about the TGI (PC-3 prostate) of the same compound?
A: > 100 µM

Q: What about the GI50 (U251 glioblastoma) of the same compound?
A: > 100 µM

Q: What about the TGI (U251 glioblastoma) of the same compound?
A: > 100 µM
